Laboratory results from publication PMC10492782, “Exploiting the aggregation propensity of beta-lactamases to design inhibitors that induce enzyme misfolding” (Nature Communications, 2023).

System: E. coli TEM-30
Assay: not given
Assay type: cell-based, Escherichia coli
Conditions: E. coli TEM-30
Description: (§1) Beta-lactamase clinical samples were collected from University Hospitals Leuven and tested for ESBL production using the disk diffusion method. The beta-lactamase reference isolates were purchased from International Health Management Associates (IHMA). Bacterial strains were cultivated in Mueller–Hinton Broth (MHB, Difco) at 37 °C. Whenever required, growth media were supplemented with appropriate antibiotics to the medium or plates (kanamycin 30 µg/mL, L-arabinose 0.5 mg/mL, and IPTG […]). Escherichia coli BL21 (ThermoFisher Scientific, Belgium) was used for cloning and plasmid amplification. For the selection of antibiotic resistant colonies, E. coli carrying plasmids was grown in LB agar plates supplemented with the relevant antibiotic. Bacterial CFU counting was done on blood agar plates (BD Biosciences, Belgium) or MHA agar plates. Species identification and antibiograms for all clinical isolates were performed using MALDI-Tof and VITEK® 2 automated system (BioMérieux, France).
(§2) Khodaparast et al Supplementary data
(§3) study. […] Abbreviations: S,
(§4) susceptible; I, intermediate; R, resistant.

Compound | Interoretation
CO/N=C(\C(=O)N[C@@H]1C(=O)N2C(C(=O)O)=C(COC(C)=O)CS[C@H]12)c1csc(N)n1 [Cefotaxime] | R
NCC[C@H](O)C(=O)N[C@@H]1C[C@H](N)[C@@H](O[C@H]2O[C@H](CN)[C@@H](O)[C@H](O)[C@H]2O)[C@H](O)[C@H]1O[C@H]1O[C@H](CO)[C@@H](O)[C@H](N)[C@H]1O [Amikacin] | S
Trimethoprim/sulfamethoxazole | S
Amoxicillin + clavulanic acid | *R

Same assay, conditions: VITEK 2 AST card

Compound | Interpretation
CO/N=C(\C(=O)N[C@@H]1C(=O)N2C(C(=O)O)=C(COC(C)=O)CS[C@H]12)c1csc(N)n1 [Cefotaxime] | R
NCC[C@H](O)C(=O)N[C@@H]1C[C@H](N)[C@@H](O[C@H]2O[C@H](CN)[C@@H](O)[C@H](O)[C@H]2O)[C@H](O)[C@H]1O[C@H]1O[C@H](CO)[C@@H](O)[C@H](N)[C@H]1O [Amikacin] | S
Trimethoprim/sulfamethoxazole | S
Amoxicillin + clavulanic acid | *R

System: E. coli NDM5a
Assay: VITEK 2 AST antimicrobial susceptibility testing
Assay type: cell-based, Escherichia coli
Conditions: E. coli NDM5a
Description: as §1, §2, §3, §4

Compound | Interoretation
CO/N=C(\C(=O)N[C@@H]1C(=O)N2C(C(=O)O)=C(COC(C)=O)CS[C@H]12)c1csc(N)n1 [Cefotaxime] | R
NCC[C@H](O)C(=O)N[C@@H]1C[C@H](N)[C@@H](O[C@H]2O[C@H](CN)[C@@H](O)[C@H](O)[C@H]2O)[C@H](O)[C@H]1O[C@H]1O[C@H](CO)[C@@H](O)[C@H](N)[C@H]1O [Amikacin] | S
Trimethoprim/sulfamethoxazole | S
Amoxicillin + clavulanic acid | R

Same assay, conditions: VITEK 2 AST card

Compound | Interpretation
CO/N=C(\C(=O)N[C@@H]1C(=O)N2C(C(=O)O)=C(COC(C)=O)CS[C@H]12)c1csc(N)n1 [Cefotaxime] | R
NCC[C@H](O)C(=O)N[C@@H]1C[C@H](N)[C@@H](O[C@H]2O[C@H](CN)[C@@H](O)[C@H](O)[C@H]2O)[C@H](O)[C@H]1O[C@H]1O[C@H](CO)[C@@H](O)[C@H](N)[C@H]1O [Amikacin] | S
Trimethoprim/sulfamethoxazole | S
Amoxicillin + clavulanic acid | R

System: E. coli NDM5b
Assay: VITEK 2 AST antimicrobial susceptibility testing
Assay type: cell-based, Escherichia coli
Conditions: E. coli NDM5b
Description: as §1, §2, §3, §4

Compound | Interoretation
CO/N=C(\C(=O)N[C@@H]1C(=O)N2C(C(=O)O)=C(COC(C)=O)CS[C@H]12)c1csc(N)n1 [Cefotaxime] | R
NCC[C@H](O)C(=O)N[C@@H]1C[C@H](N)[C@@H](O[C@H]2O[C@H](CN)[C@@H](O)[C@H](O)[C@H]2O)[C@H](O)[C@H]1O[C@H]1O[C@H](CO)[C@@H](O)[C@H](N)[C@H]1O [Amikacin] | S
Trimethoprim/sulfamethoxazole | R
Amoxicillin + clavulanic acid | R

Same assay, conditions: VITEK 2 AST card

Compound | Interpretation
CO/N=C(\C(=O)N[C@@H]1C(=O)N2C(C(=O)O)=C(COC(C)=O)CS[C@H]12)c1csc(N)n1 [Cefotaxime] | R
NCC[C@H](O)C(=O)N[C@@H]1C[C@H](N)[C@@H](O[C@H]2O[C@H](CN)[C@@H](O)[C@H](O)[C@H]2O)[C@H](O)[C@H]1O[C@H]1O[C@H](CO)[C@@H](O)[C@H](N)[C@H]1O [Amikacin] | S
Trimethoprim/sulfamethoxazole | R
Amoxicillin + clavulanic acid | R

System: E. coli SHV1 (APHA)
Assay: VITEK 2 AST antimicrobial susceptibility testing
Assay type: cell-based, Escherichia coli
Conditions: E. coli SHV154
Description: as §1, §2, §3, §4

Compound | Interoretation
CO/N=C(\C(=O)N[C@@H]1C(=O)N2C(C(=O)O)=C(COC(C)=O)CS[C@H]12)c1csc(N)n1 [Cefotaxime] | R
NCC[C@H](O)C(=O)N[C@@H]1C[C@H](N)[C@@H](O[C@H]2O[C@H](CN)[C@@H](O)[C@H](O)[C@H]2O)[C@H](O)[C@H]1O[C@H]1O[C@H](CO)[C@@H](O)[C@H](N)[C@H]1O [Amikacin] | S
Trimethoprim/sulfamethoxazole | R
Amoxicillin + clavulanic acid | R

Same assay, conditions: VITEK 2 AST card

Compound | Interpretation
CO/N=C(\C(=O)N[C@@H]1C(=O)N2C(C(=O)O)=C(COC(C)=O)CS[C@H]12)c1csc(N)n1 [Cefotaxime] | R
NCC[C@H](O)C(=O)N[C@@H]1C[C@H](N)[C@@H](O[C@H]2O[C@H](CN)[C@@H](O)[C@H](O)[C@H]2O)[C@H](O)[C@H]1O[C@H]1O[C@H](CO)[C@@H](O)[C@H](N)[C@H]1O [Amikacin] | S
Trimethoprim/sulfamethoxazole | R
Amoxicillin + clavulanic acid | R

System: E. coli TEM-104
Assay: VITEK 2 AST antimicrobial susceptibility testing
Assay type: cell-based, Escherichia coli
Conditions: E. coli TEM-104
Description: as §1, §2, §3, §4

Compound | Interoretation
CO/N=C(\C(=O)N[C@@H]1C(=O)N2C(C(=O)O)=C(COC(C)=O)CS[C@H]12)c1csc(N)n1 [Cefotaxime] | S
NCC[C@H](O)C(=O)N[C@@H]1C[C@H](N)[C@@H](O[C@H]2O[C@H](CN)[C@@H](O)[C@H](O)[C@H]2O)[C@H](O)[C@H]1O[C@H]1O[C@H](CO)[C@@H](O)[C@H](N)[C@H]1O [Amikacin] | S
Trimethoprim/sulfamethoxazole | S
Amoxicillin + clavulanic acid | R

Same assay, conditions: VITEK 2 AST card

Compound | Interpretation
CO/N=C(\C(=O)N[C@@H]1C(=O)N2C(C(=O)O)=C(COC(C)=O)CS[C@H]12)c1csc(N)n1 [Cefotaxime] | S
NCC[C@H](O)C(=O)N[C@@H]1C[C@H](N)[C@@H](O[C@H]2O[C@H](CN)[C@@H](O)[C@H](O)[C@H]2O)[C@H](O)[C@H]1O[C@H]1O[C@H](CO)[C@@H](O)[C@H](N)[C@H]1O [Amikacin] | S
Trimethoprim/sulfamethoxazole | S
Amoxicillin + clavulanic acid | R

System: E. coli TEM-148
Assay: VITEK 2 AST antimicrobial susceptibility testing
Assay type: cell-based, Escherichia coli
Conditions: E. coli TEM-148
Description: as §1, §2, §3, §4

Compound | Interoretation
CO/N=C(\C(=O)N[C@@H]1C(=O)N2C(C(=O)O)=C(COC(C)=O)CS[C@H]12)c1csc(N)n1 [Cefotaxime] | R
NCC[C@H](O)C(=O)N[C@@H]1C[C@H](N)[C@@H](O[C@H]2O[C@H](CN)[C@@H](O)[C@H](O)[C@H]2O)[C@H](O)[C@H]1O[C@H]1O[C@H](CO)[C@@H](O)[C@H](N)[C@H]1O [Amikacin] | S
Trimethoprim/sulfamethoxazole | R
Amoxicillin + clavulanic acid | *R

Same assay, conditions: VITEK 2 AST card

Compound | Interpretation
CO/N=C(\C(=O)N[C@@H]1C(=O)N2C(C(=O)O)=C(COC(C)=O)CS[C@H]12)c1csc(N)n1 [Cefotaxime] | R
NCC[C@H](O)C(=O)N[C@@H]1C[C@H](N)[C@@H](O[C@H]2O[C@H](CN)[C@@H](O)[C@H](O)[C@H]2O)[C@H](O)[C@H]1O[C@H]1O[C@H](CO)[C@@H](O)[C@H](N)[C@H]1O [Amikacin] | S
Trimethoprim/sulfamethoxazole | R
Amoxicillin + clavulanic acid | *R

System: E. coli TEM-16
Assay: VITEK 2 AST antimicrobial susceptibility testing
Assay type: cell-based, Escherichia coli
Conditions: E. coli TEM-16
Description: as §1, §2, §3, §4

Compound | Interoretation
CO/N=C(\C(=O)N[C@@H]1C(=O)N2C(C(=O)O)=C(COC(C)=O)CS[C@H]12)c1csc(N)n1 [Cefotaxime] | R
NCC[C@H](O)C(=O)N[C@@H]1C[C@H](N)[C@@H](O[C@H]2O[C@H](CN)[C@@H](O)[C@H](O)[C@H]2O)[C@H](O)[C@H]1O[C@H]1O[C@H](CO)[C@@H](O)[C@H](N)[C@H]1O [Amikacin] | S
Trimethoprim/sulfamethoxazole | S
Amoxicillin + clavulanic acid | *R

Same assay, conditions: VITEK 2 AST card

Compound | Interpretation
CO/N=C(\C(=O)N[C@@H]1C(=O)N2C(C(=O)O)=C(COC(C)=O)CS[C@H]12)c1csc(N)n1 [Cefotaxime] | R
NCC[C@H](O)C(=O)N[C@@H]1C[C@H](N)[C@@H](O[C@H]2O[C@H](CN)[C@@H](O)[C@H](O)[C@H]2O)[C@H](O)[C@H]1O[C@H]1O[C@H](CO)[C@@H](O)[C@H](N)[C@H]1O [Amikacin] | S
Trimethoprim/sulfamethoxazole | S
Amoxicillin + clavulanic acid | *R

System: E. coli TEM-206
Assay: VITEK 2 AST antimicrobial susceptibility testing
Assay type: cell-based, Escherichia coli
Conditions: E. coli TEM-206
Description: as §1, §2, §3, §4

Compound | Interoretation
CO/N=C(\C(=O)N[C@@H]1C(=O)N2C(C(=O)O)=C(COC(C)=O)CS[C@H]12)c1csc(N)n1 [Cefotaxime] | R
NCC[C@H](O)C(=O)N[C@@H]1C[C@H](N)[C@@H](O[C@H]2O[C@H](CN)[C@@H](O)[C@H](O)[C@H]2O)[C@H](O)[C@H]1O[C@H]1O[C@H](CO)[C@@H](O)[C@H](N)[C@H]1O [Amikacin] | S
Trimethoprim/sulfamethoxazole | R
Amoxicillin + clavulanic acid | *R

Same assay, conditions: VITEK 2 AST card

Compound | Interpretation
CO/N=C(\C(=O)N[C@@H]1C(=O)N2C(C(=O)O)=C(COC(C)=O)CS[C@H]12)c1csc(N)n1 [Cefotaxime] | R
Trimethoprim/sulfamethoxazole | R
Amoxicillin + clavulanic acid | *R
